Test results as given in patent US9255100B2 (BAYER INTELLECTUAL PROPERTY GMBH, priority 2010, dated 2016).

Columns and labels:
[1] = tested on: Hepatocytes from Han Wistar rats; experiment: In vitro metabolic stability in rat hepatocytes (calculation of hepatic in vivo blood clearance and Fmax); type: in vitro ADME; details: maximal oral bioavailability calculated from half-life in rat hepatocytes, 1 μM test compound
Method: Investigation of In Vitro Metabolic Stability in Rat Hepatocytes (Including Calculation of Hepatic In Vivo Blood Clearance (CL))
Hepatocytes from Han Wistar rats were isolated via a 2-step perfusion method. After perfusion, the liver was carefully removed from the rat: the liver capsule was opened and the hepatocytes were gently shaken out into a Petri dish with ice-cold WME. The resulting cell suspension was filtered through sterile gaze in 50 ml falcon tubes and centrifuged at 50×g for 3 min at room temperature. The cell pellet was resuspended in 30 ml WME and centrifuged through a Percoll® gradient for 2 times at 100×g. The hepatocytes were washed again with Williams' medium E (WME) and resuspended in medium containing 5% FCS. Cell viability was determined by trypan blue exclusion.
For the metabolic stability assay liver cells were distributed in WME containing 5% FCS to glass vials at a density of 1.0×10^6 vital cells/ml. The test compound was added to a final concentration of 1 μM. During incubation, the hepatocyte suspensions were continuously shaken and aliquots were taken at 2, 8, 16, 30, 45 and 90 min, to which equal volumes of cold methanol were immediately added. Samples were frozen at −20° C. over night, after subsequently centrifuged for 15 minutes at 3000 rpm and the supernatant was analyzed with an Agilent 1200 HPLC-system with LCMS/MS detection.
The half-life of a test compound was determined from the concentration-time plot. From the half-life the intrinsic clearances were calculated. Together with the additional parameters liver blood flow, amount of liver cells in vivo and in vitro. The hepatic in vivo blood clearance (CL) and the maximal oral bioavailability (Fmax) was calculated. The following parameter values were used: Liver blood flow—4.2 L/h/kg rat; specific liver weight—32 g/kg rat body weight; liver cells in vivo—1.1×10^8 cells/g liver, liver cells in vitro—0.5×10^6/ml.

[2] = molecular target: T1, N-terminally GST-tagged human full length recombinant Mps-1 kinase (Homo sapiens, UniProt P33981); experiment: Mps-1 kinase assay (TR-FRET); type: biochemical; details: Mps1 IC50 [nM], 10 μM ATP, 1 μM peptide substrate, 60 min at 22° C.
T1 construct: N-terminally GST-tagged human full length recombinant Mps-1 kinase; purchased Invitrogen, Karslruhe, Germany PV4071
T1 sequence (P33981 1-857): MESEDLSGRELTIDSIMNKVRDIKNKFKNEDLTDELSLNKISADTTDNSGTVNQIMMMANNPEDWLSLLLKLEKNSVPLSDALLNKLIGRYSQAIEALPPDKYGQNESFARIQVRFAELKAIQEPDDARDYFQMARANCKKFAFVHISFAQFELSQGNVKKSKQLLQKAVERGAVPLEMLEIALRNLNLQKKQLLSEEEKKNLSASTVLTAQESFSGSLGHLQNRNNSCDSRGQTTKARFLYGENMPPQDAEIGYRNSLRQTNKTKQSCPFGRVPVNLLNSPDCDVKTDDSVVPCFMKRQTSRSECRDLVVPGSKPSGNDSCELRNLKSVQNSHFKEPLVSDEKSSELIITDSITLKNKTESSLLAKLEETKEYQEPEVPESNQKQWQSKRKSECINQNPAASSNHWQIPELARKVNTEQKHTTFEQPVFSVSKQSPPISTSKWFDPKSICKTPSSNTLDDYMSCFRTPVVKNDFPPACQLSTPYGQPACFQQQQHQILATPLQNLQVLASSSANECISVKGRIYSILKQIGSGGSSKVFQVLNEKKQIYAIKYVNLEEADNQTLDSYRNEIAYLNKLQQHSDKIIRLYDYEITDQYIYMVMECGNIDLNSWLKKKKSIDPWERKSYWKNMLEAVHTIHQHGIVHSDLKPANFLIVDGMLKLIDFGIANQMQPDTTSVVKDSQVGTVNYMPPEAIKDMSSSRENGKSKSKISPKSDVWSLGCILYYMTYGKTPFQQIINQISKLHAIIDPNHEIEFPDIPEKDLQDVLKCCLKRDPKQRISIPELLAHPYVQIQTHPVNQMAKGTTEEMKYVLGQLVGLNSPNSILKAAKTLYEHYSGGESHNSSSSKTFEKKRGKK
Summary of the method: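 GST-tagged full-length recombinant Mps-1 at about 1 nM final, adjusted per lot for linear range, phosphorylated a biotinylated peptide. Product bound Eu-anti-phospho(Ser/Thr) antibody over 1 h at 22° C and was read by TR-FRET to streptavidin-XLent. Compounds scored for kinase inhibition.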

Compound	Fmax [%] [1]	IC50 [2]
Cc1ccc(F)cc1Oc1cc(NCCC(F)(F)F)c2ncc(-c3ccc(C(=O)NC4CC4)c(C)c3)n2n1 [Example 390, N-cyclopropyl-4-{6-(5-fluoro-2-methylphenoxy)-8-[(3,3,3-trifluoropropyl)amino]imidazo[1,2-b]pyridazin-3-yl}-2-methylbenzamide]	55%	0.1 nM
Cc1ccc(F)cc1Oc1cc(NCC(C)(C)O)c2ncc(-c3ccc(C(=O)NC4CC4)c(C)c3)n2n1 [Example 391, N-cyclopropyl-4-{6-(5-fluoro-2-methylphenoxy)-8-[(2-hydroxy-2-methylpropyl)amino]imidazo[1,2-b]pyridazin-3-yl}-2-methylbenzamide]	47%	0.1 nM
Cc1cc(-c2cnc3c(NCCS(C)(=O)=O)cc(Oc4cccc(F)c4F)nn23)ccc1C(=O)NC1CC1 [Example 516, N-cyclopropyl-4-[6-(2,3-difluorophenoxy)-8-{[2-(methylsulfonyl)ethyl]amino}imidazo[1,2-b]pyridazin-3-yl]-2-methylbenzamide]	69%	0.3 nM
Cc1cc(-c2cnc3c(NCC4CCN(C)CC4)cc(Oc4cccc(F)c4F)nn23)ccc1C(=O)NC1CC1 [Example 526, N-cyclopropyl-4-[6-(2,3-difluorophenoxy)-8-{[(1-methylpiperidin-4-yl)-methyl]amino}imidazo[1,2-b]pyridazin-3-yl]-2-methylbenzamide]	50%	0.1 nM

Further compounds by falling IC50 [2], results first:

Fmax [%] [1]	IC50 [2]	Compound
37%	0.3 nM	Cc1cc(-c2cnc3c(NCCN4CCOCC4)cc(Oc4cccc(F)c4F)nn23)ccc1C(=O)NC1CC1 [Example 536, N-cyclopropyl-4-[6-(2,3-difluorophenoxy)-8-{[2-(morpholin-4-yl)ethyl]amino}imidazo[1,2-b]pyridazin-3-yl]-2-methylbenzamide]
61%	0.2 nM	COc1ccc(Oc2cc(NCC3CCOCC3)c3ncc(-c4ccc(C(=O)NC5CC5)c(C)c4)n3n2)c(F)c1 [Example 445, N-cyclopropyl-4-{6-(2-fluoro-4-methoxyphenoxy)-8-[(tetrahydro-2H-pyran-4-ylmethyl)amino]imidazo[1,2-b]pyridazin-3-yl}-2-methylbenzamide]
75%	0.2 nM	Cc1cc(-c2cnc3c(NCCC(F)(F)F)cc(Oc4cccc(F)c4)nn23)ccc1C(=O)NC1(C)CC1 [Example 461, 4-{6-(3-fluorophenoxy)-8-[(3,3,3-trifluoropropyl)amino]imidazo[1,2-b]pyridazin-3-yl}-2-methyl-N-(1-methylcyclopropyl)benzamide]
42%	0.1 nM	COCCNc1cc(Oc2cccc(F)c2)nn2c(-c3ccc(C(=O)NC4CC4)c(C)c3)cnc12 [Example 492, N-cyclopropyl-4-{6-(3-fluoro-phenoxy)-8-[(2-methoxyethyl)amino]imidazo[1,2-b]pyridazin-3-yl}-2-methylbenzamide]
40%	0.1 nM	Cc1cc(-c2cnc3c(NCCN4CCOCC4)cc(Oc4cccc(F)c4)nn23)ccc1C(=O)NC1CC1 [Example 500, N-cyclopropyl-4-[6-(3-fluoro-phenoxy)-8-{[2-(morpholin-4-yl)ethyl]amino}imidazo[1,2-b]pyridazin-3-yl]-2-methylbenzamide]
39%	0.1 nM	CNc1cc(Oc2cccc(F)c2)nn2c(-c3ccc(C(=O)NC4CC4)c(C)c3)cnc12 [Example 510, N-cyclopropyl-4-[6-(3-fluoro-phenoxy)-8-(methylamino)imidazo[1,2-b]pyridazin-3-yl]-2-methylbenzamide]
